Measured values taken from patent US7396836B2, “Pyrimidine compound and medicinal composition thereof” (Eisai R&D Management Co., Ltd., priority 2001, dated 2008).

Assays:
[1] = system: haloperidol-induced catalepsy; test: Evaluation of effects on haloperidol-induced catalepsy; format: in vivo, mouse; settings: ICR mice, haloperidol 1 mg/kg i.p., 1 hour after administration, score 0-5
Excerpt: Evaluation of Effects on Haloperidol-induced Catalepsy Parkinson's disease is a disease caused by the degeneration or cell death of nigrostriatal dopaminergic neurons. The administration of haloperidol (dopamine D1/D2 receptor antagonist) blocks postsynaptic D2 receptors to induce catalepsy. The haloperidol-induced catalepsy has been known as a classic model that mimics Parkinson's disease by drug administration (Eur. J. Pharmacol., 182, 327-334(1990)). The adenosine A2A receptor antagonist compounds identified by measuring on their binding abilities to the receptors in Test Examples 1 to 3, the salts thereof, solvates of them, or pharmaceutical compositions containing those were evaluated for effect on haloperidol-induced catalepsy by the method described below. That is, the experiment was conducted by eight 5-week-old male ICR mice (available from Charles River) per group. Haloperidol (manufactured by Sigma Co., Ltd.) was dissolved in a 6.1% tartaric acid solution and the resulting solution in a dose of 1 mg/kg was then intraperitoneally administered to the mice. The test compound was used as a 0.5% MC suspension. 1.5 hours after the intraperitoneal administration of haloperidol, each of the suspension with the test compound and the suspension without the test compound (control) was orally administered to the mice (0.1 ml per 10 g of mouse body weight). 1 hour after the administration of the test compound, the degree of catalepsy was measured with respect to each of the mice such that a pair of only forelimbs and a pair of only hindlimbs of each mouse were placed by turns on a stand 4.5 cm in height and 10 cm in width. […] Catalepsy scores and criterions are as follows. […] The effects of the compound were determined by making a comparison between the score of the control group and the score of the test group in which the test compound was administered. A significant difference was analyzed by Dunnett's-test.

[2] = system: SD IGS rats; test: Evaluation of defecation-promoting action; format: in vivo, rat; settings: 3 mg/kg oral, 90 minutes after administration, per cage (3 animals/cage)
Excerpt: Evaluation of Defecation-Promoting Action
The defecation-promoting action of the adenosine A2B receptor-inhibiting compound which was identified by measuring the binding affinity or antagonistic activity thereof to the adenosine receptor in Test Examples 1 to 3, a salt thereof, a solvate of them, or a pharmaceutical composition containing it can be evaluated on the basis of the following method. That is, SD IGS rats (6 weeks-old, from Charles River) were placed in cages (3 animals/cage) and preliminarily allowed food and water ad libitum and raised for 1 week. Then, a tared water-absorbing sheet was placed below each cage, and the animals were fasted but allowed water ad libitum throughout the experiment. After 1.5 hours, the fecal pellets were collected from each cage and observed for abnormality before the experiment. The compound suspended or dissolved in 0.5% (w/v) methyl cellulose (MC) was orally administered in a volume of 5 ml/kg. On one hand, 0.5% (w/v) MC only was orally given to the control group. After administration of the compound, the rats were returned to the cage provided with a new water-absorbing sheet, and 90 minutes after the administration, the fecal pellets on the water-absorbing sheet were collected from each cage, and the external appearance was observed, and then counted and weighed. The number of fecal pellets is expressed per each cage.

[3] = biological target: T1, adenosine A2A receptor (Homo sapiens, UniProt P29274); test: Binding ability to adenosine A2A receptor (3H-CGS21680 displacement); settings: A2A receptor membrane sample, Cheng-Prusoff
T1 construct: purchased Receptor Biology Inc
T1 sequence (P29274 whole entry): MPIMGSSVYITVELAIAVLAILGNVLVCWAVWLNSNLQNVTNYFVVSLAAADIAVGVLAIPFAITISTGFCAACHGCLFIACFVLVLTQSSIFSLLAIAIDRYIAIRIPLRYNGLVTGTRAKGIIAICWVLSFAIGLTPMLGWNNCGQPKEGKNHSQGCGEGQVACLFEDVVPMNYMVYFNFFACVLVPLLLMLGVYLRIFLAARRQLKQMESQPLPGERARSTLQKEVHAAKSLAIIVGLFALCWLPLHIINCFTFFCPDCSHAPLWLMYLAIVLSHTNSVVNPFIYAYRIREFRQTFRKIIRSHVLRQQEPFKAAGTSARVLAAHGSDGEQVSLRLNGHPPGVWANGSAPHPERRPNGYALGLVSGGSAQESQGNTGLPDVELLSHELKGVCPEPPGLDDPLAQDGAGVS
Protocol: Measurement of the Binding Ability to Adenosine A2A Receptor
An experiment of inhibition of binding to adenosine A2A receptor was conducted using a membrane sample (Receptor Biology Inc.) where an adenosine A2A receptor cDNA was expressed in excess. This membrane sample was suspended at a protein concentration of 22.2 μg/ml in 20 mM HEPES buffer, pH 7.4 (10 mM MgCl2 and 100 mM NaCl). To 0.45 ml of this membrane sample suspension were added 0.025 ml of 500 nM tritium-labeled 2-p-[2-carboxyethyl]phenetylamino-5′-N-ethylarboxyamide adenosine (^3H-CGS21680, from NEN) and 0.025 ml of test compound. This mixture was left at 25° C. for 90 minutes, filtered rapidly under suction through a glass fiber filter (GF/B, from Whatman), and immediately washed twice with 5 ml of 50 mM ice-cooled Tris-HCl buffer. Thereafter, the glass fiber filter was transferred to a vial, scintillator was added thereto, and the radioactivity on the filter was measured by a liquid scintillation counter. The inhibition of binding of ^3H-CGS21680 to A2A receptor by the test compound was determined using the following formula, and from this inhibition, 50% inhibition concentration (IC50) was calculated. Inhibition (%)=[1−{[(binding in the presence of the test compound)−(nonspecific binding)]/[(total binding)−(nonspecific binding)]}]×100
(§1) Here, the total binding means ^3H-CGS21680-bound radioactivity in the absence of the test compound; the nonspecific binding means ^3H-CGS21680-bound radioactivity in the presence of 100 μM RPIA; and the binding in the presence of the test compound means ^3H-CGS21680-bound radioactivity in the presence of the test compound at predetermined concentrations. The inhibition constant (Ki value) in the table was determined from the formula of Cheng-Prusoff.

[4] = biological target: T2, human adenosine A2B receptor (Homo sapiens, UniProt P29275); test: Inhibition of NECA-stimulated production of cAMP in adenosine A2B receptor-expressing CHOK1 cells; format: cell-based; settings: cAMP stimulated by 30 nM NECA
T2 construct: expressed in transfected cells; host or cells: CHOK1 cells
T2 sequence (P29275 1-332): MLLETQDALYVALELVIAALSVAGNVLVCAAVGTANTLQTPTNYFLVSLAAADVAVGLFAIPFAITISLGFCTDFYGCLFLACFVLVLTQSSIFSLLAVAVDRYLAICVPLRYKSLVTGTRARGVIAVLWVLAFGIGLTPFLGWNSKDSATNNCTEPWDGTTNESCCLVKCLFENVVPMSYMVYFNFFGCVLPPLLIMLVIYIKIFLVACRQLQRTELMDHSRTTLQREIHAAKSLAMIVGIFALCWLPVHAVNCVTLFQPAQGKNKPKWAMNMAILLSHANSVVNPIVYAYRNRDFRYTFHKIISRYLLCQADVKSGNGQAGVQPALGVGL
Protocol: Experiment of Inhibition of NECA-stimulated Production of cAMP in Adenosine A2B Receptor-expressing Cells
CHOK1 cells where human adenosine A2B receptor had been expressed in excess were plated onto a 24-well plate at a density of 1.5×10^5 cells/well, cultured overnight, and used in the experiment. The degree of inhibitory effect of the test compound on the amount of cAMP produced by stimulation with 30 nM 5′-N-ethylcarboxyamide adenosine (NECA from Sigma) was evaluated in terms of affinity for A2B receptor. That is, the adhering cells were washed twice with 2 ml/well Krebs-Ringer buffer solution (containing 0.1% BSA; pH 7.4) and pre-incubated for 30 minutes in a volume of 0.5 ml/well. Then, a mixed solution containing NECA and the test compound was added in a volume of 0.1 ml/well in the presence of a phosphodiesterase inhibitor Ro-20-1724 (a product of RBI). After pre-incubation for 15 minutes, the reaction was terminated with 0.1 N HCl in a volume of 300 μl/well. Measurement of intracellular cAMP was carried out using a cAMP enzyme immunoassay kit produced by Amersham. The inhibition of NECA-stimulated production of cAMP by the test compound was determined using the following equation: Inhibition (%)=[1−{(amount of cAMP in the coexistence of NECA and the test compound-amount of cAMP in only the Krebs-Ringer buffer solution)/(amount of cAMP upon stimulation with NECA only-amount of cAMP in only the Krebs-Ringer buffer solution)}]×100

[5] = biological target: T3, human adenosine A1 receptor (Homo sapiens, UniProt P30542); test: Binding affinity to adenosine A1 receptor (3H-CCPA displacement); settings: membranes of CHOK1 cells expressing human A1 receptor, Cheng-Prusoff
T3 construct: expressed in transfected cells; host or cells: CHOK1 cells (membrane sample)
T3 sequence (P30542 1-326): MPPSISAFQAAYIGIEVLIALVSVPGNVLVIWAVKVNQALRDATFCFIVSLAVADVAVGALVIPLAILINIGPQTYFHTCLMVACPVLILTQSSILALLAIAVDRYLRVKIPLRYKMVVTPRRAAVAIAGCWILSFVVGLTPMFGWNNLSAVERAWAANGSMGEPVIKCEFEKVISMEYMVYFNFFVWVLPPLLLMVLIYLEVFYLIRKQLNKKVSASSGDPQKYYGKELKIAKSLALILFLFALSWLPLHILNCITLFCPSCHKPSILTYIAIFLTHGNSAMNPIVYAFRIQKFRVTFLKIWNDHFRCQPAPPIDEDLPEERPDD
Protocol: Measurement of the binding affinity to adenosine A1 receptor
A human adenosine A1 receptor cDNA was expressed in excess in CHOK1 cells, and this membrane sample was suspended at a protein concentration of 66.7 μg/ml in 20 mM HEPES buffer, pH 7.4 (10 mM MgCl2, 100 mM NaCl). To 0.45 ml of this membrane sample suspension were added 0.025 ml of 60 nM tritium-labeled chlorocyclopentyl adenosine (^3H-CCPA, from NEN Ltd.) and 0.025 ml of test compound. This mixture was left at 30° C. for 120 minutes, filtered rapidly under suction through a glass fiber filter (GF/B, from Whatman), and immediately washed twice with 5 ml of 50 mM water-cooled Tris-HCl buffer. Thereafter, the glass fiber filter was transferred to a vial, scintillator was added thereto, and the radioactivity on the filter was measured by a liquid scintillation counter. The inhibition of binding of ^3H-CCPA to A1 receptor by the test compound was determined using the following formula, and from this value, 50% inhibition concentration (IC50) was calculated. Inhibition (%)=[1-{(binding in the presence of the test compound-nonspecific binding)/(total binding-nonspecific binding)}]×100
as §1, with “In the above formula,” for “Here,”, “^3H-CCPA-bound” for “^3H-CGS21680-bound”, “CPA ([…]);” for “RPIA;”

Structure (SMILES) | Catalepsy score (Mean ± S.E.) ([1]; test compound 0.1 mg/kg oral) | Catalepsy score (Mean ± S.E.) ([1]; test compound 1.0 mg/kg oral) | Number of fecal pellets Mean ± S.E. [2] | Ki [3] | IC50 [4] | Ki [5]
Cn1cc(-c2cnc(N)nc2-c2ccco2)ccc1=O [Example 16, 5-[2-Amino-4-(2-furyl)-5-pyrimidinyl]-1-methyl-1,2-dihydro-2-pyridinone] | 4.63 ± 0.38 | 0.88 ± 0.64 | 12.50 ± 0.96 | 6 nM | 29 nM | 175 nM
CCn1cc(-c2cnc(N)nc2-c2ccco2)ccc1=O [Example 17, 5-[2-Amino-4-(2-furyl)-5-pyrimidinyl]-1-ethyl-1,2-dihydro-2-pyridinone] | 3.38 ± 0.53 | 1.13 ± 0.67 | 15.50 ± 3.18 | 3 nM | 25 nM | 289 nM
C=CCn1cc(-c2cnc(N)nc2-c2ccco2)ccc1=O [Example 18, 1-Allyl-5-[2-amino-4-(2-furyl)-5-pyrimidinyl]-1,2-dihydro-2-pyridinone] | – | – | 14.50 ± 1.26 | 2 nM | 26 nM | 114 nM
